# Results published in patent US12245997B2, “Endoxifen for the treatment of bipolar I disorder” (priority 2020, dated 2025).
# Columns and labels:
# [1] = Therapeutic index comparison; conditions: as compared to divalproex sodium
# PKC [2] = test: Inhibition of PKC activity; type: biochemical; conditions: relative to tamoxifen
# [3] = in human; cited from earlier work
# PKC [4] = conditions: cited from earlier work
SMILES,therapeutic index [1],potency in inhibiting the PKC activity compared to tamoxifen (PKC [2]),antimanic properties [3],PKC inhibition (PKC [4])
"CC/C(=C(\c1ccc(O)cc1)c1ccc(OCCNC)cc1)c1ccccc1.O=C(O)CC(O)(CC(=O)O)C(=O)O [Endoxifen, (Z)-1-(4-Hydroxyphenyl)-1-{4-[2-(monomethylamino)ethoxy]phenyl}-2-phenyl-1-butene citrate]",broad therapeutic index,four-fold higher potency,–,–
CC/C(=C(\c1ccccc1)c1ccc(OCCN(C)C)cc1)c1ccccc1 [Tamoxifen],–,–,demonstrate antimanic properties in human,known to inhibit PKC
